According to EPA's ToxValDB 9.5:

Test system: Mus musculus
Settings: oral
[1] = short-term, duration: 13 days, drinking water, F, C57BL/6, spleen: spleen CD8+ cells
[2] = short-term, duration: 14 days, gavage, M, BALB/c, relative mRNA expression of IL-1beta in spleen + thymus: apoptosis in thymus cells
[3] = short-term, duration: 14 days, gavage, M, BALB/c, relative mRNA expression of IL-1beta in thymus + spleen: apoptosis in spleen cells
[4] = short-term, duration: 14 days, gavage, M, Kunming, COX-2 in liver tissue
[5] = short-term, duration: 14 days, gavage, M, Kunming, CRP in liver tissue + liver: IL-6 levels
[6] = short-term, duration: 15 days, drinking water, F, C57BL/6, IgG antibody titer (SRBC) + IgM antibody titer (SRBC) + spleen: spleen: absolute weight + spleen: spleen: relative weight
[7] = short-term, duration: 15 days, drinking water, F, C57BL/6, IgM antibody titer (DNP)
[8] = short-term, duration: 15 days, drinking water, F, C57BL/6, IgM antibody titer (SRBC) + spleen: spleen: relative weight
[9] = short-term, duration: 15 days, drinking water, F, C57BL/6, spleen: spleen: absolute weight + spleen: spleen: relative weight + thymus: thymus: absolute weight + thymus: thymus: relative weight
[10] = short-term, duration: 15 days, drinking water, F, IgM antibody titer (SRBC)
[11] = short-term, duration: 21 days, drinking water, M, ICR, cytokine mRNA for IL-1 beta in spleen (relative to beta-actin) + expression of c-myc in thymus (relative to beta-actin) + mean body weight…
[12] = short-term, duration: 21 days, drinking water, M, ICR, cytokine mRNA for IL-6 in spleen (relative to beta-actin) + cytokine mRNA for TNF-alpha in spleen (relative to beta-actin) + expression of c…
[13] = short-term, duration: 28 days, gavage, M, BALB/c, testes: TNFa in testes
[14] = short-term, duration: 29 days, gavage, M, Crl:CD-1 (ICR) BR, IgM antibody titer (SRBC) + mean serum corticosterone + spleen: spleen: absolute weight + spleen: total number of splenocytes + thymus: …
[15] = short-term, duration: 29 days, gavage, M, Crl:CD-1 (ICR) BR, spleen: spleen: relative weight
[16] = subchronic, duration: 6 weeks, gavage, M, 129/SV, relative mRNA expression of TNF alpha/GAPDH in liver

## O=C([O-])C(F)(F)C(F)(F)C(F)(F)C(F)(F)C(F)(F)C(F)(F)C(F)(F)F.[NH4+] [Ammonium perfluorooctanoate]
[1]
  LOEL: 7.5 mg/kg-day
  NOEL: 3.75 mg/kg-day
short-term, duration: 13 days, drinking water, F, C57BL/6, spleen: spleen DN (CD4-/CD8-) cells
  LOEL: 3.75 mg/kg-day
short-term, duration: 14 days, gavage, M, BALB/c, change in body weight + spleen: apoptosis in spleen cells + spleen: spleen: relative weight + thymus: thymus: relative weight
  LOEL: 5 mg/kg-day
short-term, duration: 14 days, gavage, M, BALB/c, relative mRNA expression of IL-1beta in spleen + relative mRNA expression of IL-1beta in thymus
  NOEL: 20 mg/kg-day
[2]
  LOEL: 10 mg/kg-day
  NOEL: 5 mg/kg-day
[3]
  LOEL: 20 mg/kg-day
  NOEL: 10 mg/kg-day
[4]
  LOEL: 5 mg/kg-day
  NOEL: 2.5 mg/kg-day
[5]
  LOEL: 10 mg/kg-day
  NOEL: 5 mg/kg-day
short-term, duration: 14 days, gavage, M, Kunming, liver: Cox-2 levels + liver: CRP levels + liver: IL-6 levels
  LOEL: 10 mg/kg-day
short-term, duration: 14 days, gavage, M, Kunming, liver: IL-6 levels + liver: TNF-alpha levels
  LOEL: 10 mg/kg-day
[6]
  LOEL: 25 mg/L
  NOEL: 12.5 mg/L
[7]
  LOEL: 1.88 mg/kg-day
  NOEL: 0.94 mg/kg-day
[8]
  LOEL: 30 mg/kg-day
  NOEL: 7.5 mg/kg-day
short-term, duration: 15 days, drinking water, F, C57BL/6, spleen: spleen B220+ cells + spleen: spleen cellularity + spleen: spleen DN (CD4-/CD8-) cells + spleen: spleen DP (CD4+/CD8+) cells
  NOEL: 7.5 mg/kg-day
short-term, duration: 15 days, drinking water, F, C57BL/6, spleen: spleen CD4+ cells + spleen: spleen CD8+ cells + spleen: spleen NK 1.1 cells
  LOEL: 3.75 mg/kg-day
[9]
  LOEL: 100 mg/L
  NOEL: 50 mg/L
short-term, duration: 15 days, drinking water, F, C57BL/6, spleen: spleen: absolute weight + spleen: spleen: relative weight + thymus: thymus: relative weight
  NOEL: 200 mg/L
short-term, duration: 15 days, drinking water, F, C57BL/6, thymus: thymus: relative weight
  LOEL: 7.5 mg/kg-day
[10]
  LOEL: 30 mg/kg-day
  NOEL: 7.5 mg/kg-day
short-term, duration: 15 days, drinking water, F, spleen: spleen: relative weight + thymus: thymus: relative weight
  NOEL: 30 mg/kg-day
short-term, duration: 15 days, gavage, F, C57BL/6, IgG antibody titer (SRBC) + spleen: spleen: absolute weight + spleen: spleen: relative weight + thymus: thymus: absolute weight + thymus: …
  NOEL: 30 mg/kg-day
short-term, duration: 15 days, gavage, F, C57BL/6, IgM antibody titer (SRBC) + spleen: spleen: absolute weight + spleen: spleen: relative weight + thymus: thymus: absolute weight + thymus: …
  LOEL: 30 mg/kg-day
short-term, duration: 16 days, diet, M, C57BL/6, - HRBC IgG1: 160 reciprocal serum dilution + - HRBC IgG1: 320 reciprocal serum dilution + - HRBC IgG1: 40 reciprocal serum dilution + - HRBC…
  NOEL: 0.02%
short-term, duration: 16 days, diet, M, C57BL/6, IgG1 antibody-producing cells (HRBC) + IgG2b antibody-producing cells (HRBC) + IgG3 antibody-producing cells (HRBC) + IgM antibody-producing…
  LOEL: 200 mg/kg-day
short-term, duration: 16 days, diet, M, C57BL/6, IgG1 antibody-secreting cells (HRBC) + IgG1 antibody level (HRBC 1:160) + IgG1 antibody level (HRBC 1:20) + IgG1 antibody level (HRBC 1:80…
  LOEL: 0.02%
[11]
  LOEL: 17.6 mg/kg-day
  NOEL: 2.64 mg/kg-day
[12]
  LOEL: 47.2 mg/kg-day
  NOEL: 17.6 mg/kg-day
short-term, duration: 21 days, drinking water, M, ICR, cytokine mRNA for IL-6 in thymus (relative to beta-actin) + cytokine mRNA for TNF-alpha in thymus (relative to beta-actin) + cytokine mRNA …
  NOEL: 47.2 mg/kg-day
short-term, duration: 21 days, drinking water, M, ICR, spleen: spleen CD8+ cells + spleen: spleen DN (CD4-CD8-) cells + spleen: spleen DP (CD4+CD8+) cells
  LOEL: 0.49 mg/kg-day
short-term, duration: 23 days, gavage, M, Crl:CD-1 (ICR) BR, IgM antibody titer (SRBC) + spleen: spleen: absolute weight + spleen: spleen: relative weight + spleen: total number of splenocytes + thymus…
  LOEL: 30 mg/kg-day
short-term, duration: 23 days, gavage, M, Crl:CD-1 (ICR) BR, mean serum corticosterone + spleen: incidence of spleen hematopoiesis + spleen: spleen: relative weight
  NOEL: 30 mg/kg-day
[13]
  LOEL: 5 mg/kg-day
  NOEL: 1.25 mg/kg-day
[14]
  LOEL: 10 mg/kg-day
  NOEL: 1 mg/kg-day
[15]
  LOEL: 1 mg/kg-day
  NOEL: 0.3 mg/kg-day
[16]
  LOEL: 5 mg/kg-day
  NOEL: 1 mg/kg-day
subchronic, duration: 6 weeks, gavage, M, relative mRNA expression of TNF alpha/GAPDH in liver
  LOEL: 5 mg/kg-day
